In data set [1] the target is T1, calcitonin receptors (CTR) (Homo sapiens, UniProt P30988).
T1 construct: expressed in transfected cells; host or cells: cAMP Hunter HEK293-CT-R Gs cell line (HEK293, stably transfected)
T1 sequence (P30988 25-474): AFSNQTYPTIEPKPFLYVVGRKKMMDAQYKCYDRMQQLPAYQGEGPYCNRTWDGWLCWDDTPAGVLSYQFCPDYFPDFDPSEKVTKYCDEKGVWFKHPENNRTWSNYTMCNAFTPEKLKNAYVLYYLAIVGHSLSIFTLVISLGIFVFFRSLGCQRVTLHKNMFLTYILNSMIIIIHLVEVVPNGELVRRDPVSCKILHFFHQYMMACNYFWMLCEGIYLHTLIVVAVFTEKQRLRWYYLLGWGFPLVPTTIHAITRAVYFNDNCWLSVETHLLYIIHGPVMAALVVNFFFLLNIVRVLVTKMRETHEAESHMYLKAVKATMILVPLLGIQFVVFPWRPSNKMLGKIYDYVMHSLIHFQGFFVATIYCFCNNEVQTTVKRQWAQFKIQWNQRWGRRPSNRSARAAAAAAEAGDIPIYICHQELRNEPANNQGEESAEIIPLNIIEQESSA
The data set can be described thus: cAMP determination (HTRF, cAMP Dynamic 2 Kit) in cAMP Hunter HEK293-CT-R Gs cell line. The data set is classed as cell-based. Particulars: relative to Salmon Calcitonin = 100.0; HEK293 CT-R cAMP. (In general: In TR-FRET formats the signal depends on donor and acceptor labels being close together.)

A short description of another data set: in vivo. Also noted: species or system Macaca fascicularis. The following applies: cynomolgus monkey, sc, 0.1 mg/kg. The procedure: Macaca fascicularis were used as experimental animals. A subcutaneous administration was performed at a dose of 0.1 mg/kg. Venous blood samples were collected before administration (0 h) and at 1 h, 2 h, 3 h, 4 h, 8 h, 12 h, 18 h, 24 h, 48 h, 96 h, 144 h, and 168 h post-administration. Plasma samples were separated by centrifugation. The plasma concentration of the compound in the plasma samples was determined using liquid chromatography-mass spectrometry.

Structures are written as SMILES.

In the case of `CC(C)C[C@H](NC(=O)[C@H](CCCCN)NC(=O)CNC(=O)[C@H](CC(C)C)NC(=O)[C@@H](NC(=O)[C@@H]1CSSC[C@H](N)C(=O)N[C@@H](CO)C(=O)N[C@@H](CC(N)=O)C(=O)N[C@@H](CC(C)C)C(=O)N[C@@H](CO)C(=O)N[C@@H]([C@@H](C)O)C(=O)N1)C(C)C)C(=O)N[C@@H](CO)C(=O)N[C@@H](CCC(N)=O)C(=O)N[C@@H](CCC(=O)O)C(=O)N[C@@H](CC(C)C)C(=O)N[C@@H](Cc1c[nH]cn1)C(=O)N[C@@H](CCCCNC(=O)COCCOCCOCCOCCOCCNC(=O)CC[C@H](NC(=O)CCCCCCCCCCCCCCCCCCC(=O)O)C(=O)O)C(=O)N[C@@H](CC(C)C)C(=O)N[C@@H](CCC(N)=O)C(=O)N[C@H](C(=O)N[C@@H](Cc1ccc(O)cc1)C(=O)N1CCC[C@H]1C(=O)N[C@@H](CCCNC(=N)N)C(=O)N[C@H](C(=O)N[C@@H](CC(N)=O)C(=O)N[C@H](C(=O)NCC(=O)N[C@@H](CO)C(=O)NCC(=O)N[C@H](C(=O)N1CCC[C@H]1C(N)=O)[C@@H](C)O)[C@@H](C)O)[C@@H](C)O)[C@@H](C)O` [Compound 5, Cys-Ser-Asn-Leu-Ser-Thr-Cys-Val-Leu-Gly-Lys-Leu-Ser-Gln-Glu-Leu-His-Lys(PEG5CH2CO-γGlu-eicosanedioic acid)-Leu-Gln-Thr-Tyr-Pro-Arg-Thr-Asn-Thr-Gly-Ser-Gly-Thr-Pro-NH2], the “Relative Activity%” value in data set [1] came to 339.3%. For the same compound, in the data set “in vivo”, the half-life (usually the time needed for the level to fall by half in the phase considered) was 53.6 h.

For the origin of these results see EP4691482A1, “LONG-ACTING CALCITONIN ANALOG” (Chengdu Aoda Biotechnology Co., Ltd., priority 2023, dated 2024).
